Results from patent US8088827B2, “Use of irbesartan for the preparation of medicinal products that are useful for treating pulmonary hypertension” (Sanofi-Aventis, priority 2001, dated 2012).

Key:
[1] = tested on: pulmonary hypertension induced by injection of monocrotaline in rats; experiment: Survival of rats with monocrotaline-induced pulmonary hypertension; assay type: in vivo, Male Sprague-Dawley rats
Procedure: Male Sprague-Dawley rats weighing about 300 g received a subcutaneous injection of monocrotaline (MCT) at a dose of 80 mg/kg.
The treatment with irbesartan was started either 21 days or 14 days after injection of monocrotaline. Irbesartan was incorporated into the food in powder form. The control animals received food alone.
Throughout the study, the animals were examined daily.
In a first study, irbesartan was administered alone at a dose of 50 mg/kg. In a second study, irbesartan was administered alone at a dose of 30 mg/kg and in combination with hydrochlorothiazide (HCTZ): irbesartan: 30 mg/kg and HCTZ: 10 mg/kg.

[2] = tested on: pulmonary hypertension induced with monocrotaline; settings: reported by L. Cassis et al. and R. Kreutz et al.; cited from earlier work
[3] = Study 2, treatment started on the 14th day post-MCT, irbesartan 30 mg/kg, HCTZ 10 mg/kg, alone or in combination
[4] = Study 1, irbesartan 50 mg/kg in food, treatment started on the 14th day after MCT 80 mg/kg s.c.
[5] = Study 1, irbesartan 50 mg/kg in food, treatment started on the 21st day after MCT 80 mg/kg s.c.

Compound | Survival to the 50th day [1, 3] | Survival to the end of the study (85th day) [1, 3] | Survival time of the MCT-treated rats ([1]; 50 mg/kg/day, either from the 21st day or from the 14th day post-MCT) | Survival to the 25th day [1, 4] | Survival to the 50th day [1, 4] | Survival to the end of the study (100th day) [1, 4] | Survival to the end of the study (100th day) ([1]; Study 1, irbesartan 50 mg/kg in food, treatment started on the 14th day after MCT 80 mg/kg s.c., listed as irbesartan) | Survival to the 25th day [1, 5] | Survival to the 50th day [1, 5] | Survival to the end of the study (57th day) [1, 5] | Survival to the end of the study (57th day) ([1]; Study 1, irbesartan 50 mg/kg in food, treatment started on the 21st day after MCT 80 mg/kg s.c., listed as irbesartan) | Overall survival time estimated ([1]; Study 1, irbesartan 50 mg/kg, treatment started on the 14th day post-MCT, control group 46 days) | Median estimated survival time ([1]; Study 2, treatment started on the 14th day post-MCT, irbesartan 30 mg/kg alone or with HCTZ 10 mg/kg) | Effect in the monocrotaline pulmonary hypertension model [2]
NS(=O)(=O)c1cc2c(cc1Cl)NCNS2(=O)=O [HCTZ, hydrochlorothiazide] | 25% | 4.2% |  |  |  |  |  |  |  |  |  |  |  | 
CCCCC1=NC2(CCCC2)C(=O)N1Cc1ccc(-c2ccccc2-c2nnn[nH]2)cc1 [Irbesartan] | 47.8% | 0% | significantly increased the survival time | 100% (12/12) | 83% (10/12) | 50% (6/12) | 50% | 100% (18/18) | 72% (13/18) | 61% (11/18) | 61% | > 93 days | 46 days | 
CCCCc1nc(Cl)c(CO)n1Cc1ccc(-c2ccccc2-c2nn[nH]n2)cc1 [losartan] |  |  |  |  |  |  |  |  |  |  |  |  |  | no effect
